According to patent US11629359B2, “Plasma membrane intrinsic aquaporin for absorbing and transporting neonicotinoid insecticides, and coding gene and use therefor” (JIANGSU ACADEMY OF ARGRICULTURAL SCIENCES, priority 2020, dated 2023):

Tests used:
BraPIP2;1 = experiment: Response of BraPIP2;1 gene expression to thiamethoxam (quantitative RT-PCR); type: in vivo, Chinese cabbage; settings: 10 mg/L thiamethoxam, 6 hours and 24 hours, p<0.001
Method: Seedlings of Chinese cabbage with the same growth condition were put in a Hoagland's nutrient solution containing 10 mg/L thiamethoxam (the Hoagland's nutrient solution was purchased from Beijing Coolaber Technology Co., Ltd.), and treated in the Hoagland's nutrient solution for 6 and 24 hours (treatment group).
At the same time, a Hoagland's nutrient solution without thiamethoxam was used as the control group.
Treated root and aboveground tissue RNA of two groups was extracted respectively, the 1st strand cDNA was obtained by reverse transcription as a template, specific expression primers were designed based on the cDNA sequence of BraPIP2;1, the Chinese cabbage Tublin was used as an internal reference, and the expression of the gene transcription level was detected by quantitative RT-PCR.
The quantification instrument is 7500 Real Time PCR System (Applied Biosystem), and a qPCRT system was configured according to the instructions of a kit 2×TSINGKE Master qPCR Mix (Tsingke Biotechnology Co., Ltd.). The PCR program is: pre-denaturation at 95° C. for 10 min, at 95° C. for 15s, and at 60° C. for 20 s, for 40 cycles.

[1] = tested on: Saccharomyces cerevisiae INVSc1 (pYES2-BraPIP2;1); experiment: Growth of recombinant yeast strains under thiamethoxam stress; type: cell-based; settings: thiamethoxam 10-1600 mg/L, stress at 30° C. for 72 h
From the text: (§1) The BraPIP2;1 gene cloned in Example 1 was constructed into the Saccharomyces cerevisiae overexpression vector pYES2 (purchased from Clotech) referring to (He Lin, Jiang Lili, Wang Yucheng, Analysis of the stress tolerance of Tamarix thioredoxin peroxidase (ThPrx1) gene transformed into yeast, Journal of Northeast Forestry University, 2011, Vol. 39. No. 4, 101-104), and the constructed recombinant plasmid was named pYES2-BraPIP2;1. The pYES2-BraPIP2;1 and an empty vector pYES2 were transformed into Saccharomyces cerevisiae INVSc1 by lithium acetate precipitation. The recombinant yeasts were named INVSc1 (pYES2-BraPIP2;1) and INVSc1 (pYES2), respectively.
(§2) Induction of recombinant strains: Single colonies of the control yeast INvsc1 (pYES2) and the recombinant yeast INvsc1 (pYES2-BraPIP2;1) were picked, inoculated in an SC-U liquid medium (with glucose of a final concentration of 2%) respectively, and incubated at 30° C. for 24 h on a shaker. The OD600 value is measured, and the amount of bacterial solution required is calculated such that the OD600 of bacteria in 10 ml of induction medium (SC-U+2% galactose) is 0.4. Induce expression was carried out at 30° C. for 24 h. The OD600 value was measured again, and the amount of bacterial solution required was calculated. […]

[2] = tested on: Saccharomyces cerevisiae INVSc1 (pYES2-BraPIP2;1); experiment: Thiamethoxam content of recombinant yeast strain; type: cell-based; settings: 30° C., 6 h
From the text: as §1, §2

[3] = tested on: Saccharomyces cerevisiae INVSc1 (pYES2); experiment: Thiamethoxam content of control yeast strain; type: cell-based; settings: 30° C., 6 h
From the text: as §1, §2

[4] = tested on: BraPIP2;1 overexpression Arabidopsis thaliana; experiment: Main root length of BraPIP2;1 transgenic Arabidopsis thaliana under thiamethoxam; type: in vivo; settings: 1/2MS media with 10 and 50 mg/L thiamethoxam, 20 days
From the text: (§3) The BraPIP2;1 gene cloned in Example 1 was constructed into the plant binary overexpression vector pCAMBIA2301 (purchased from Clotech). By the Agrobacterium tumefaciens-mediated method (Valvekens, D., van Montagu, M., and Lijsebettens, M. V. (1988). Agrobacterium tumefaciens-mediated transformation of Arabidopsis thaliana root explants by using kanamycin selection. Proc. Natl. Acad. Sci. USA 85, 5536-5540.), the inflorescence of wild-type Arabidopsis thaliana Col-0 (purchased from ATCC, USA) was infected with the constructed overexpression vector. Through screening (resistance pure line seedlings were screened on a 1/2MS plate containing 50 μg/mL kanamycin), BraPIP2;1 overexpression Arabidopsis thaliana pure line materials BraPIP2;1#3 and BraPIP2;1#5 were identified and obtained.
The pure line seeds of the BraPIP2;1#3 and BraPIP2;1#5 obtained in the previous transgenic experiment and a wild-type Col-0 material (WT) were germinated on a 1/2MS medium respectively, and then transferred to 1/2MS media (Qingdao Hopebio Co., Ltd., Item No. HB8469-12, PH=5.6) containing 10 and 50 mg/L thiamethoxam respectively. After 20 days, the growth of the seedlings was observed and the main root length was measured.

[5] = tested on: BraPIP2;1 overexpression Arabidopsis thaliana; experiment: Thiamethoxam content of BraPIP2;1 transgenic Arabidopsis thaliana plants; type: in vivo; settings: soil containing 10 mg/L thiamethoxam, 20 days
From the text: as §3
In addition, germinated seedlings of the same size were transplanted into soil containing 10 mg/L thiamethoxam, and after 20 days of culture, the root and aboveground samples of the transgenic Arabidopsis thaliana and the control were harvested respectively, washed with deionized water, and weighed.

Chinese cabbage plants = settings: 2 mg/L in Hoagland nutrient solution, mercuric chloride and glycerol of different concentrations, 48 h

SMILES	expression abundance of BraPIP2;1 in the roots and aboveground parts compared with the control (BraPIP2;1)	growth of transgenic strain (pYES2-BraPIP2;1) versus wild strain (pYES2) with thiamethoxam [1]	thiamethoxam content of the recombinant strain ([2]; 10 mg/L thiamethoxam)	thiamethoxam content of the recombinant strain ([2]; 100 mg/L thiamethoxam)	thiamethoxam content of the control strain ([3]; 10 mg/L thiamethoxam)	thiamethoxam content of the control strain ([3]; 100 mg/L thiamethoxam)	main root length of the transgenic strain versus wild type [4]	thiamethoxam content of the roots and aboveground parts of the transgenic plant versus wild plant [5]	content of the compound in the plants after water channel inhibitors were added (Chinese cabbage plants)
CN1COCN(Cc2cnc(Cl)s2)/C1=N\[N+](=O)[O-] [thiamethoxam]	significantly increased	grows significantly weaker than the wild strain	0.0071 ng/OD	0.028 ng/OD	0.0038 ng/OD	0.011 ng/OD	shorter than that of the wild type	higher than that of the wild plant	
CN1CCCC1c1cccnc1 (stereo not drawn) [nicotine]									did not change significantly
